ChEMBL document CHEMBL5236642, “Discovery of structural diverse reversible BTK inhibitors utilized to develop a novel in vivo CD69 and CD86 PK/PD mouse model” (Bioorg Med Chem Lett, 2023)
≈ marks a conversion by molar mass, not a printed value.

Legend:
[1] = Solubility of the compound; format: physicochemical
[2] = Half-life in Sprague-Dawley rat at 1 mg/kg, iv; format: ADME, organism-based; settings: in vivo
[3] = Apparent permeability from apical to basolateral side in human CaCo-2/TC-7 cells; format: ADME, cell-based, Caco2/TC7
[4] = Oral bioavailability in Sprague-Dawley rat at 5 mg/kg; format: ADME, organism-based; settings: in vivo
[5] = Tmax in Sprague-Dawley rat at 5 mg/kg, po; format: ADME, organism-based; settings: in vivo
[6] = Volume of distribution at steady state in Sprague-Dawley rat at 1 mg/kg, iv; format: ADME, organism-based; settings: in vivo, read-out: Vdss
[7] = Oral bioavailability in rat at 2 mg/kg; format: ADME, organism-based; settings: in vivo
[8] = Clearance in rat at 2 mg/kg, iv; format: ADME, organism-based; settings: in vivo
[9] = Tmax in rat at 2 mg/kg, po; format: ADME, organism-based; settings: in vivo
[10] = Half-life in rat at 2 mg/kg, iv; format: ADME, organism-based; settings: in vivo

| SMILES | solubility [1] [µg/mL] | half-life [2] [h] | Papp A→B [3] [×10⁻⁶ cm/s] | bioavailability [4] [%] | Tmax [5] [h] | Vd [6] [L/kg] | bioavailability [7] [%] | CL [8] [mg/mL/kg] | Tmax [9] [h] | half-life [10] [h] |
| --- | --- | --- | --- | --- | --- | --- | --- | --- | --- | --- |
| O=C(CNc1cc(Cl)cc(Cl)c1)NC1CCCN(c2ncnc3[nH]ccc23)C1 (stereo not given) | 39 (≈ 93 µM) | – | – | – | – | – | – | – | – | – |
| O=C(CNc1cc(Cl)cc(Cl)c1)N1CC[C@H]2CCN(c3ncnc4[nH]ccc34)[C@H]2C1 | – | 0.9 | 190 | 34 | 0.87 | 1.1 | – | – | – | – |
| C[C@@H]1[C@H](Nc2ncnc3[nH]ccc23)CCCN1C(=O)CNc1cc(Cl)cc(Cl)c1 | – | 5.3 | 150 | 23 | 1.6 | 1.3 | – | – | – | – |
| O=C(CNc1cc(Cl)cc(Cl)c1)N1CCC[C@@H](Nc2ncnc3[nH]ccc23)C1 | – | – | – | – | – | – | 98 | 8 | 2 | 13.3 |
